Where two headings read alike, the source gives them in different places.
Tests used:
[1] = tested on: Influenza B virus B/Lee/40; test: Normal Human Bronchial/Tracheal Epithelial Cell Influenza Infection Assay (EC50), Influenza B Lee/40; format: cell-based; conditions: Normal Human Bronchial/Tracheal Epithelial Cells, 10 MOI, five day incubation, neuramidase substrate fluorescence, read-out: Infl B Lee/40 EC50
Protocol: Normal Human Bronchial/Tracheal Epithelial Cell Influenza Infection Assay (EC50)
Normal Human Bronchial/Tracheal Epithelial Cells (Lonza, Basel Switzerland) are seeded to 384-well plates at a density of 4000 cells per well in BEGM medium supplemented with growth factors (Lonza, Basel Switzerland). Medium is removed next day, and cells are washed three times with 100 μL of RPMI+1% BSA (RPMI-BSA). 30 μL of RPMI-BSA is added to cells thereafter. Compounds are 3-fold serially diluted in DMSO, and 0.4 μL of compound dilutions are stamped to plates. Influenza A virus HK/8/68 (Advanced Biotechnology Inc, Columbia, Md., 13.5 MOI), PC/1/73 (ATCC Manassas, Va., 0.3 MOI) and Influenza B virus B/Lee/40 ((ATCC Manassas, Va., 10 MOI) are added to cells in 10 μL of RPMI-BSA medium supplemented with 8 ug/mL trypsin (Worthington, Lakewood, N.J.). After a five day incubation, 40 μL of buffer containing 66 mM Mes pH 6.5, 8 mM CaCl2, 0.5% NP-40 and 100 μM neuramidase substrate (2′-(4-Methylumbelliferyl)-α-D-N-acetylneuraminic acid sodium salt hydrate, Sigma Aldrich, St. Luis, Mo.) is added to cells. Fluorescence of the product of hydrolysis is read using excitation at 360 nm and emission at 450 nm after a 1 hour incubation at 37° C. EC50 values are calculated by non-linear regression of multiple data sets.

[2] = tested on: Influenza A virus PC/1/73; test: microbe, parasite or virus in culture; format: cell-based; conditions: read-out: Infl A PC/1/73 EC50
Influenza RNA polymerase = Influenza RNA polymerase (Influenza A virus, UniProt P03431); test: Influenza RNA Polymerase Inhibition (IC50) Assay; format: biochemical; conditions: virus lysate of Influenza A/PR/8/34 (H1N1), 30° C. for 90 minutes, α-33P labeled NTP incorporation
Protocol: Influenza RNA Polymerase Inhibition (IC50) Assay
Influenza A/PR/8/34 (H1N1) purified virus was obtained from Advanced Biotechnologies Inc. (Columbia, Md.) as suspension in PBS buffer. Virions were disrupted by exposure to an equal volume of 2% Triton X-100 for 30 minutes at room temperature in a buffer containing 100 mM Tris-HCl, pH 8, 200 mM KCl, 3 mM dithiothreitol [DTT], 10% glycerol, 10 mM MgCl2, 2 U/mL RNasin Ribonuclease Inhibitor, and 2 mg/mL Lysolechithin type V (Sigma, Saint Louis, Mo.). The virus lysate was stored at −80° C. in aliquots.
The concentrations refer to final concentrations unless mentioned otherwise. Nucleotide analog inhibitors were serially diluted 3 fold in water and added to reaction mix containing 10% virus lysate (v/v), 100 mM Tris-HCl (pH 8.0), 100 mM KCl, 1 mM DTT, 10% glycerol, 0.25% Triton-101 (reduced), 5 mM MgCl2, 0.4 U/mL RNasin, and 200 μM ApG dinucleotide primer (TriLink, San Diego Calif.). […]
Reactions were incubated at 30° C. for 90 minutes then spotted onto DE81 filter paper. Filters were air dried, washed 0.125 M Na2HPO4 (3×), water (1×), and EtOH (1×), and air dried before exposed to Typhoon phosphor imager and radioactivity was quantified on a Typhoon Trio (GE Healthcare, Piscataway N.J.). […]

Compound | EC50 [1] [µM] | EC50 [2] [µM] | IC50 (Influenza RNA polymerase) [µM] | EC50 ([1]; Influenza B virus, Epithelial cell, 120 h) [µM] | EC50 ([2]; Influenza A virus, Epithelial cell, 120 h) [µM]
Nc1nc(N)c2ncc(C3OC(CO)C(O)C3F)n2n1 [Compound 6, (2S,3S,4R,5R)-5-(2,4-diaminoimidazo[1,2-f][1,2,4]triazin-7-yl)-4-fluoro-2-(hydroxymethyl)tetrahydrofuran-3-ol] | 51 | 21 |  |  | 
Nc1nn2c([C@@H]3O[C@H](CO)[C@@H](O)[C@@H]3F)cnc2c(=O)[nH]1 [Compound 7] | 37 | 27 |  |  | 
Nc1nn2c([C@@H]3O[C@H](COP(=O)(O)OP(=O)(O)OP(=O)(O)O)[C@@H](O)[C@H]3F)cnc2c(=O)[nH]1 [Compound 8, ((2R, 3R, 4R, 5S)-5-(2-amino-4-oxo-3,4-dihydroimidazo[1,2-J][1,2,4]triazin-7-yl)-4-fluoro-3-hydroxy-3-hydroxytetrahydrofuran-2-yl)methyl tetrahydrogen triphosphate] |  |  | 2.8 |  | 
Nc1ncnn2c([C@H]3O[C@@H](CO)[C@H](O)[C@H]3F)cnc12 [Compound 10, (2S,3S,4R,5R)-5-(4-aminoimidazo[1,2-f][1,2,4]triazin-7-yl)-4-fluoro-2-(hydroxymethyl)tetrahydrofuran-3-ol] | 0.9 | 0.9 |  |  | 
Nc1nc(F)nn2c([C@@H]3O[C@H](CO)[C@@H](O)[C@H]3F)cnc12 [Compound 12, (2R,3R,4R,5S)-5-(4-amino-2-fluoroimidazo[1,2-f][1,2,4]triazin-7-yl)-4-fluoro-2-(hydroxymethyl)tetrahydrofuran-3-ol] | > 100 | > 100 |  |  | 
CCOc1nc(N)nn2c([C@@H]3O[C@H](CO)[C@@H](O)[C@H]3F)cnc12 [Compound 18, (2R,3R,4R,5S)-5-(2-amino-4-ethoxyimidazo[1,2-f][1,2,4]triazine-7-yl)-4-fluoro-2-(hydroxymethyl)tetrahydrofuran-3-ol] | > 200 | > 200 |  |  | 
COc1nc(N)nn2c([C@@H]3O[C@H](CO)[C@@H](O)[C@H]3F)cnc12 [Compound 19, (2R,3R,4R,5S)-5-(2-amino-4-methoxyimidazo[1,2-f][1,2,4]triazin-7-yl)-4-fluoro-2-(hydroxymethyl)tetrahydrofuran-3-ol] |  |  |  | 36 | 30

Source: patent publication US10941177B2, “2′-substituted carba-nucleoside analogs for antiviral treatment” (Gilead Sciences, Inc., priority 2012, dated 2021)
